Laboratory results from BindingDB's records for doi:10.1016/j.bmcl.2012.12.028 (Pfizer, 2013).

These compounds were tested against T1, P-selectin (Homo sapiens, UniProt P16109) (assay: Inhibition of P-selectin aggregation in platelet surface (unknown origin)).
T1 sequence (P16109 whole entry): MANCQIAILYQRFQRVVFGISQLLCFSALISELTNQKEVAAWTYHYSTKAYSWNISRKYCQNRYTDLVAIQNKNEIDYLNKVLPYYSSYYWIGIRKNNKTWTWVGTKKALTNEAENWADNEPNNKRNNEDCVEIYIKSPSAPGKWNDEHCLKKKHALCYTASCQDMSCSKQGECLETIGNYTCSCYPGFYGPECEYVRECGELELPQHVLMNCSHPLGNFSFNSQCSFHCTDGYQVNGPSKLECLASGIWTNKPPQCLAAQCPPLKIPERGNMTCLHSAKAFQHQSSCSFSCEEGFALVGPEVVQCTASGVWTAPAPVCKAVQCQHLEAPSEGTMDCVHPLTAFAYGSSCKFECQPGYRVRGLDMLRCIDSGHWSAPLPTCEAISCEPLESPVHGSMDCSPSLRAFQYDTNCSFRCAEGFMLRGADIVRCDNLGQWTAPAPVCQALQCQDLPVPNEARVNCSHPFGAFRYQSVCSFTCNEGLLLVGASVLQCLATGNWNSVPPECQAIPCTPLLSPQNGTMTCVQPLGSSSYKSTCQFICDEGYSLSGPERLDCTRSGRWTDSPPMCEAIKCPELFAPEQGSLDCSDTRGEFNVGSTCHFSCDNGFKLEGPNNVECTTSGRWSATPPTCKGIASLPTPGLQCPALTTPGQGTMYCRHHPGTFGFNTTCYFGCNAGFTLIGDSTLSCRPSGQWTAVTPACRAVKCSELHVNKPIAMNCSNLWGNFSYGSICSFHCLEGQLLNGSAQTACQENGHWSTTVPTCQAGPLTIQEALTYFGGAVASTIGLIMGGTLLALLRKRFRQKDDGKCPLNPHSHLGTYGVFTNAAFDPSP

SMILES	IC50
COc1ccccc1CNc1ncc(C(=O)NCCNC(C)=O)c(NC2CCCC2)n1	6600 nM
Cc1cc(-c2cnc(Nc3cc(Cl)cc(Cl)c3)nc2NC2CCNCC2)on1	1600 nM
O[C@@H]1COC[C@H]1Nc1nc(Nc2cc(Cl)cc(Cl)c2)ncc1Br	3900 nM
COc1ccccc1CNc1ncc(C(=O)NC2CCN(C)CC2)c(NC2CCCC2)n1	1500 nM
O=C(NCCCN1CCCC1=O)c1cnc(NCc2cc(Cl)ccc2Cl)nc1NC1CCCC1	3100 nM
COc1ccccc1CNc1ncc(C(=O)NCCCN2CCCC2=O)c(NC2CCCC2)n1	17000 nM
COc1ccccc1CNc1ncc(C(=O)NCCCO)c(NC2CCCC2)n1	10000 nM
O[C@@H]1COC[C@H]1Nc1nc(Nc2cc(Cl)cc(Cl)c2)ncc1-c1cccnc1	3000 nM
CN1CCC(NC(=O)c2cnc(NCc3cc(Cl)ccc3Cl)nc2NC2CCC(N(C)C)CC2)CC1 (stereo not given)	1100 nM
COc1ccccc1CNc1ncc(C(=O)NCCCCN(C)C)c(NC2CCCC2)n1	7100 nM
Cc1cc(-c2cnc(Nc3cc(Cl)cc(Cl)c3)nc2NC2CCC(N(C)C)CC2)on1 (stereo not given)	1000 nM
O[C@@H]1COC[C@H]1Nc1nc(Nc2cc(Cl)cc(Cl)c2)ncc1-c1ccc(F)cc1	> 80000 nM
O=C(NCCCN1CCOC1=O)c1cnc(NCc2cc(Cl)ccc2Cl)nc1NC1CCCC1	7400 nM

The next lines start with the values.

IC50	SMILES
400 nM	CN1CCC(NC(=O)c2cnc(Nc3cc(Cl)cc(Cl)c3)nc2NC2CCC(N(C)C)CC2)CC1 (stereo not given)
> 80000 nM	CN1CCC(NC(=O)c2cnc(NCc3cc(Cl)ccc3Cl)nc2NC2CCNCC2)CC1
1200 nM	CN1CCC(NC(=O)c2cnc(NCc3cc(Cl)ccc3Cl)nc2NC2CCCC2)CC1
580 nM	CC[C@@H](CO)Nc1nc(Nc2cc(Cl)cc(Cl)c2)ncc1C(=O)NC1CCN(C)CC1
430 nM	CN1CCC(NC(=O)c2cnc(Nc3cc(Cl)cc(Cl)c3)nc2N[C@H]2CCCCNC2=O)CC1
1200 nM	CN1CCC(NC(=O)c2cnc(Nc3cc(Cl)cc(Cl)c3)nc2NC2CCOCC2)CC1
2200 nM	CN1CCC(NC(=O)c2cnc(Nc3cc(Cl)cc(Cl)c3)nc2N[C@@H]2COC[C@H]2O)CC1
